Measured values as given in ChEMBL document CHEMBL1250483, “Three-dimensional quantitative structure-activity relationship CoMSIA/CoMFA and LeapFrog studies on novel series of bicyclo [4.1.0] heptanes derivatives as melanin-concentrating hormone receptor R1 antagonists” (Eur J Med Chem, 2010).

Biological target: Melanin-concentrating hormone receptor 1 (Homo sapiens, UniProt Q99705)
Experiment: Antagonist activity at MCH1 receptor
Assay type: functional

Melanin-concentrating hormone receptor 1, sequence (Q99705 whole entry): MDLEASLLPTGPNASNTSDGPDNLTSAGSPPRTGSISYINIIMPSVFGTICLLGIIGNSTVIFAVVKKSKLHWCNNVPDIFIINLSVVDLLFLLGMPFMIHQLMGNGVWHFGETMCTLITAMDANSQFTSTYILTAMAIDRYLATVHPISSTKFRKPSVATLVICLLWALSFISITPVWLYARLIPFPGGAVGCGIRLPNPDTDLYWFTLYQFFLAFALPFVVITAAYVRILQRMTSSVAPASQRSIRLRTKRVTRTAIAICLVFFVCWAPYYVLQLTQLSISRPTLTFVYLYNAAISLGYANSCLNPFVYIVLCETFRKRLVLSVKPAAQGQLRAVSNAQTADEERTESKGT

Ki [nM]	Compound
15	COC1CCN(CCN(C(=O)Nc2ccc(F)c(Cl)c2)C2CC[C@]3(c4cccc(C#N)c4)CC3C2)CC1 (stereo partly drawn)
134	N#Cc1cccc([C@]23CCC(N(CCN4CC[C@@H](O)C4)C(=O)Nc4ccc(OCOc5ccccc5)c(OCOc5ccccc5)c4)CC2C3)c1 (stereo partly drawn)
54	CC(C)N(CCN(C(=O)Nc1ccc(F)c(Cl)c1)C1CC[C@]2(c3cccc(CN4CCN(C)CC4)c3)CC2C1)C(C)C (stereo partly drawn)
80	CS(=O)(=O)N1CCC(CCN(C(=O)Nc2ccc(F)c(C(F)(F)F)c2)C2CC[C@]3(c4cccc(C#N)c4)CC3C2)CC1 (stereo partly drawn)
8.89	CS(=O)(=O)N1CCC(CN(C(=O)Nc2cc(Cl)nc(Cl)c2)C2CC[C@]3(c4cccc(CN5CC[C@H](O)C5)c4)CC3C2)CC1 (stereo partly drawn)
373	COc1cccc(NC(=O)N(CCN2CC[C@@H](O)C2)C2CC[C@]3(c4cccc(C#N)c4)CC3C2)c1 (stereo partly drawn)
54	N#Cc1cccc([C@]23CCC(N(CCN4CC[C@@H](O)C4)C(=O)Nc4ccc(F)cc4)CC2C3)c1 (stereo partly drawn)
18	CC(C)N(CCN(C(=O)Nc1ccc(F)c(Cl)c1)C1CC[C@]2(c3cccc(CNS(C)(=O)=O)c3)CC2C1)C(C)C (stereo partly drawn)
26	CS(=O)(=O)N1CCC(CN(C(=O)Nc2ccc(F)c(C(F)(F)F)c2)C2CC[C@]3(c4cccc(C#N)c4)CC3C2)CC1 (stereo partly drawn)
15	N#Cc1cccc([C@]23CCC(N(CCN4CC[C@@H](O)C4)C(=O)Nc4cc(F)cc(F)c4)CC2C3)c1 (stereo partly drawn)
20	N#Cc1cccc([C@]23CCC(N(CCN4CC[C@@H](O)C4)C(=O)Nc4ccc(F)c(F)c4)CC2C3)c1 (stereo partly drawn)
31	CC(=O)NCc1cccc([C@]23CCC(N(CCN(C(C)C)C(C)C)C(=O)Nc4ccc(F)c(Cl)c4)CC2C3)c1 (stereo partly drawn)
9.71	CS(=O)(=O)N1CCC(CN(C(=O)Nc2cccc(F)c2)C2CC[C@]3(c4cccc(C#N)c4)CC3C2)CC1 (stereo partly drawn)
48	Cc1ccc(NC(=O)N(CCN2CC[C@@H](O)C2)C2CC[C@]3(c4cccc(C#N)c4)CC3C2)cc1F (stereo partly drawn)
60	N#Cc1cccc([C@]23CCC(N(CCN4CC[C@@H](O)C4)C(=O)Nc4cccc([N+](=O)[O-])c4)CC2C3)c1 (stereo partly drawn)
21	CC(C)N(CCN(C(=O)Nc1ccc(F)c(Cl)c1)C1CC[C@]2(c3cccc(CN4CC[C@H](O)C4)c3)CC2C1)C(C)C (stereo partly drawn)
34	N#Cc1cccc([C@]23CCC(N(CCN4CC[C@@H](O)C4)C(=O)Nc4cccc(Br)c4)CC2C3)c1 (stereo partly drawn)
27	N#Cc1cccc([C@]23CCC(N(CCN4CC[C@@H](O)C4)C(=O)Nc4cccc(Cl)c4)CC2C3)c1 (stereo partly drawn)
46	CCN(CC)Cc1cccc([C@]23CCC(N(CCN(C(C)C)C(C)C)C(=O)Nc4ccc(F)c(Cl)c4)CC2C3)c1 (stereo partly drawn)
295	CS(=O)(=O)N1CCCCC1CN(C(=O)Nc1ccc(F)c(Cl)c1)C1CC[C@]2(c3cccc(C#N)c3)CC2C1 (stereo partly drawn)
92	N#Cc1cccc(NC(=O)N(CCN2CC[C@@H](O)C2)C2CC[C@]3(c4cccc(C#N)c4)CC3C2)c1 (stereo partly drawn)

Ki [nM]	Compound
4.98	CC(C)N(CCN(C(=O)Nc1ccc(F)c(Cl)c1)C1CC[C@]2(c3cccc(C#N)c3)CC2C1)C(C)C (stereo partly drawn)
13	CC(C)N(CCN(C(=O)Nc1ccc(F)c(Cl)c1)C1CC[C@]2(c3cccc(CN(C)C)c3)CC2C1)C(C)C (stereo partly drawn)
8.71	CC(C)N(CCO)CCN(C(=O)Nc1ccc(F)c(Cl)c1)C1CC[C@]2(c3cccc(C#N)c3)CC2C1 (stereo partly drawn)
15	CN(C)Cc1cccc([C@]23CCC(N(CC4CCN(S(C)(=O)=O)CC4)C(=O)Nc4ccc(F)c(Cl)c4)CC2C3)c1 (stereo partly drawn)
2.7	CC(C)N(CCN(C(=O)Nc1cccc([N+](=O)[O-])c1)C1CC[C@]2(c3cccc(C#N)c3)CC2C1)C(C)C (stereo partly drawn)
5.7	CC(C)N(CCN(C(=O)Nc1cccc(Br)c1)C1CC[C@]2(c3cccc(C#N)c3)CC2C1)C(C)C (stereo partly drawn)
9.4	CC(C)N(CCN(C(=O)Nc1ccc(F)c(Cl)c1)C1CC[C@]2(c3cccc(C#N)c3)CC2C1)[C@H](C)CO (stereo partly drawn)
5.2	CC(C)N(CCN(C(=O)Nc1ccc(F)c(Cl)c1)C1CC[C@]2(c3cccc(C#N)c3)CC2C1)[C@@H](C)CO (stereo partly drawn)
3.3	CN(C)Cc1cccc([C@]23CCC(N(CC4CCN(S(C)(=O)=O)CC4)C(=O)Nc4cc(Cl)nc(Cl)c4)CC2C3)c1 (stereo partly drawn)
2.1	CC(C)N(CCN(C(=O)Nc1cccc(F)c1)C1CC[C@]2(c3cccc(C#N)c3)CC2C1)C(C)C (stereo partly drawn)
6	CC(C)N(CCN(C(=O)Nc1cccc(Cl)c1)C1CC[C@]2(c3cccc(C#N)c3)CC2C1)C(C)C (stereo partly drawn)
12	CC(C)N(CCF)CCN(C(=O)Nc1ccc(F)c(Cl)c1)C1CC[C@]2(c3cccc(C#N)c3)CC2C1 (stereo partly drawn)
2.4	CC(C)N(CCN(C(=O)Nc1cc(Cl)nc(Cl)c1)C1CC[C@]2(c3cccc(C#N)c3)CC2C1)C(C)C (stereo partly drawn)
7.6	CC(C)N(CCN(C(=O)Nc1cccc(C#N)c1)C1CC[C@]2(c3cccc(C#N)c3)CC2C1)C(C)C (stereo partly drawn)
4.5	CC(C)N(CCN(C(=O)Nc1cc(F)cc(F)c1)C1CC[C@]2(c3cccc(C#N)c3)CC2C1)C(C)C (stereo partly drawn)
1.6	CC(C)N(CCO)CCN(C(=O)Nc1cc(Cl)nc(Cl)c1)C1CC[C@]2(c3cccc(C#N)c3)CC2C1 (stereo partly drawn)
1.6	CC(C)N(CCN(C(=O)Nc1cc(Cl)nc(Cl)c1)C1CC[C@]2(c3cccc(C#N)c3)CC2C1)[C@@H](C)CO (stereo partly drawn)
84.9	CC1CCC(C2=CCC(N(CCN3CCCC3)C(=O)Nc3ccc(F)c(Cl)c3)CC2)S1 (stereo not drawn)
31	CC(=O)C1CCC(C2=CCC(N(CCN3CCCC3)C(=O)Nc3ccc(F)c(Cl)c3)CC2)S1 (stereo not drawn)
10.4	CC(C)N(CCN(C(=O)Nc1ccc(F)cc1)C1CC[C@]2(c3cccc(C#N)c3)CC2C1)C(C)C (stereo partly drawn)
1.9	CC(C)NCCN(C(=O)Nc1cc(Cl)nc(Cl)c1)C1CC[C@]2(c3cccc(C#N)c3)CC2C1 (stereo partly drawn)

Ki [nM]	Compound
4.4	N#Cc1cccc([C@]23CCC(N(CCNCCF)C(=O)Nc4cc(Cl)nc(Cl)c4)CC2C3)c1 (stereo partly drawn)
23	CC(=O)C1CCCN1CCN(C(=O)Nc1ccc(F)c(Cl)c1)C1CC[C@]2(c3cccc(C#N)c3)CC2C1 (stereo partly drawn)
11	CC1CC[C@@H](CO)N1CCN(C(=O)Nc1ccc(F)c(Cl)c1)C1CC[C@]2(c3cccc(C#N)c3)CC2C1 (stereo partly drawn)
1.2	CC1CC[C@@H](CO)N1CCN(C(=O)Nc1cc(Cl)nc(Cl)c1)C1CC[C@]2(c3cccc(C#N)c3)CC2C1 (stereo partly drawn)
16	C[N+]1(CCN(C(=O)Nc2ccc(F)c(Cl)c2)C2CC[C@]3(c4cccc(C#N)c4)CC3C2)CCCC1 (stereo partly drawn)
15	C[N+]1(CCN(C(=O)Nc2ccc(F)c(Cl)c2)C2CC[C@]3(c4cccc(C#N)c4)CC3C2)CCCCC1 (stereo partly drawn)
22	N#Cc1cccc([C@]23CCC(N(CCN4CCCC(O)C4)C(=O)Nc4ccc(F)c(Cl)c4)CC2C3)c1 (stereo partly drawn)
15	N#Cc1cccc([C@]23CCC(N(CCN4CCCCCC4)C(=O)Nc4ccc(F)c(Cl)c4)CC2C3)c1 (stereo partly drawn)
181	CNC(=O)N1CCC(CN(C(=O)Nc2ccc(F)c(C(F)(F)F)c2)C2CC[C@]3(c4cccc(C#N)c4)CC3C2)CC1 (stereo partly drawn)
11	N#Cc1cccc([C@]23CCC(N(CCN4CCOCC4)C(=O)Nc4ccc(F)c(Cl)c4)CC2C3)c1 (stereo partly drawn)
7.76	CC(C)N(CCN(C(=O)Nc1ccc(F)c(F)c1)C1CC[C@]2(c3cccc(Br)c3)CC2C1)C(C)C (stereo partly drawn)
312	CC(=O)N1CCC(CN(C(=O)Nc2ccc(F)c(Cl)c2)C2CC[C@]3(c4cccc(C#N)c4)CC3C2)CC1 (stereo partly drawn)
48	CC(C)N(CCN(C(=O)Nc1ccc(F)c(Cl)c1)C1CC[C@]2(c3cccc(CO)c3)CC2C1)C(C)C (stereo partly drawn)
7.19	CS(=O)(=O)N1CCC(CN(C(=O)Nc2ccc(F)c(Cl)c2)C2CC[C@]3(c4cccc(C#N)c4)CC3C2)CC1 (stereo partly drawn)
4.1	CO/N=C/c1cccc([C@]23CCC(N(CCN(C(C)C)C(C)C)C(=O)Nc4ccc(F)c(Cl)c4)CC2C3)c1 (stereo partly drawn)
5.4	CS(=O)(=O)N1CCC(CN(C(=O)Nc2ccc(F)c(F)c2)C2CC[C@]3(c4cccc(C#N)c4)CC3C2)CC1 (stereo partly drawn)
132	N#Cc1cccc([C@]23CCC(N(CCN4CC[C@@H](O)C4)C(=O)Nc4ccccc4)CC2C3)c1 (stereo partly drawn)
20	N#Cc1cccc([C@]23CCC(N(CCN4CC[C@@H](O)C4)C(=O)Nc4cccc(F)c4)CC2C3)c1 (stereo partly drawn)
29	CCO/N=C/c1cccc([C@]23CCC(N(CCN(C(C)C)C(C)C)C(=O)Nc4ccc(F)c(Cl)c4)CC2C3)c1 (stereo partly drawn)
21	CCS(=O)(=O)N1CCC(CN(C(=O)Nc2ccc(F)c(F)c2)C2CC[C@]3(c4cccc(C#N)c4)CC3C2)CC1 (stereo partly drawn)
211	CS(=O)(=O)N1CCCC(CN(C(=O)Nc2ccc(F)c(Cl)c2)C2CC[C@]3(c4cccc(C#N)c4)CC3C2)C1 (stereo partly drawn)
